Measured values: patent publication US20250171495A1, “MUTLI-TARGETED SERINE PROTEASE INHIBITORS FOR TREATMENT OF CANCER AND VIRAL INFECTION” (Washington University, priority 2023, published 2025)
Several values for one entry are separate records, joined by “and”; a condition that tells them apart may be missing. Equal values may be shown once.

Tests used:
Assay type in all cases: biochemical
HGFA = biological target: T1, HGFA (Homo sapiens, UniProt Q04756); test: HyCoSuL P4-P2 substrate specificity screening, HGFA; conditions: for P2 Position Substrate Activity for HGFA (percent substrate cleavage/proteolysis): residue fixed at P2 position; for P3 Position Various Amino Acids Substrate Activity, HGFA (percent substrate cleavage/proteolysis): residue fixed at P3 position of substrate library; for P4 Position Various Amino Acids Substrate Activity, HGFA (percent substrate proteolysis/cleavage): residue fixed at P4 position of substrate library; for P4 Position Substrate Activity for HGFA (percent substrate cleavage/proteolysis): residue fixed at P4 position
T1 sequence (Q04756 373-655): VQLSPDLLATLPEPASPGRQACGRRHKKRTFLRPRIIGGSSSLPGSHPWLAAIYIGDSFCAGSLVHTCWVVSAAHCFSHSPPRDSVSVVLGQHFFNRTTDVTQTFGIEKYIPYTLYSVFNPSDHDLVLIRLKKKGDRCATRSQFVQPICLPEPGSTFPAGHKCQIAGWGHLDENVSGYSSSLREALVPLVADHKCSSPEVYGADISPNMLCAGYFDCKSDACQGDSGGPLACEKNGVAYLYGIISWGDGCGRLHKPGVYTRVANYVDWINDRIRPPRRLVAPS

hepsin = biological target: T2, hepsin (Homo sapiens, UniProt P05981); test: HyCoSuL P4-P2 substrate specificity screening, hepsin; conditions: for P2 Position Substrate Activity for hepsin (percent substrate cleavage/proteolysis): residue fixed at P2 position; for P3 Position Various Amino Acids Substrate Activity, hepsin (percent substrate cleavage/proteolysis): residue fixed at P3 position of substrate library; for P4 Position Various Amino Acids Substrate Activity, hepsin (percent substrate proteolysis/cleavage): residue fixed at P4 position of substrate library; for P4 Position Substrate Activity for hepsin (percent substrate cleavage/proteolysis): residue fixed at P4 position
T2 construct: purchased R&D Systems 4776-SE-010

TMPRSS2 = TMPRSS2 (Homo sapiens, UniProt O15393); test: PS-SCL / HyCoSuL substrate specificity screening, TMPRSS2; conditions: for P2 Position Substrate Activity for TMPRSS2 (percent substrate cleavage/proteolysis): residue fixed at P2 position of substrate library; for P4 Position Various Amino Acids Substrate Activity, TMPRSS2 (percent substrate proteolysis/cleavage) / P4 Position Substrate Activity for TMPRSS2 (percent substrate cleavage/proteolysis): residue fixed at P4 position of substrate library
matriptase = biological target: T3, matriptase (Homo sapiens, UniProt Q9Y5Y6); test: HyCoSuL P4-P2 substrate specificity screening, matriptase; conditions: for P2 Position Substrate Activity for matriptase (percent substrate cleavage/proteolysis): residue fixed at P2 position; for P3 Position Various Amino Acids Substrate Activity, matriptase (percent substrate cleavage/proteolysis): residue fixed at P3 position of substrate library; for P4 Position Various Amino Acids Substrate Activity, matriptase (percent substrate proteolysis/cleavage): residue fixed at P4 position of substrate library; for P4 Position Substrate Activity for matriptase (percent substrate cleavage/proteolysis): residue fixed at P4 position
T3 sequence (Q9Y5Y6 1-855): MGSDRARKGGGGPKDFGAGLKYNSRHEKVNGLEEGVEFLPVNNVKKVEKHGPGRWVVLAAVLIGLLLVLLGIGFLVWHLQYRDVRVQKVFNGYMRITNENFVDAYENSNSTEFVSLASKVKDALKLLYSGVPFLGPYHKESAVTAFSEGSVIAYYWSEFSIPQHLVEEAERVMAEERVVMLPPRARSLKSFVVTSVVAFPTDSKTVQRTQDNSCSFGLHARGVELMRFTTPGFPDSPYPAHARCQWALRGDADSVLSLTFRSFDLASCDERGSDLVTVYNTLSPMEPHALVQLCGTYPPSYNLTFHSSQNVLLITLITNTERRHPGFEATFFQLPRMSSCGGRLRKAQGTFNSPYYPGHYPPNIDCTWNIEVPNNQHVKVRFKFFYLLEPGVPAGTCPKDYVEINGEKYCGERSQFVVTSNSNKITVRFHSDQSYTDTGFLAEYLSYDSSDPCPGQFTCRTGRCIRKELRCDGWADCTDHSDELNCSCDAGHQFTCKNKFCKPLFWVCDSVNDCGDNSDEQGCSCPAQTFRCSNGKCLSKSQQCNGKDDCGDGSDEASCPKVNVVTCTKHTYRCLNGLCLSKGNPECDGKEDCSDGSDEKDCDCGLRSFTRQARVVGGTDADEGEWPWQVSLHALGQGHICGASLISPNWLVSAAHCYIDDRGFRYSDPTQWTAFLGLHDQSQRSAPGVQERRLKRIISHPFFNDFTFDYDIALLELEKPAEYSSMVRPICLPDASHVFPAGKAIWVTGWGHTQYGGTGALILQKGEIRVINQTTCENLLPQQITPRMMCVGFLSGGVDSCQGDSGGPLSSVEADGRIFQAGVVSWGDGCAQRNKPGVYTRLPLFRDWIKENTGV

[1] = P1-Arg HyCoSuL, 100 μM, best recognized amino acid set to 100%
[2] = best recognized amino acid set to 100%
[3] = residue fixed at P3 position of substrate library
[4] = residue fixed at P3 position, P1-Arg HyCoSuL, 100 μM, best recognized amino acid set to 100%

T2 sequence (P05981 163-417 limits assumed): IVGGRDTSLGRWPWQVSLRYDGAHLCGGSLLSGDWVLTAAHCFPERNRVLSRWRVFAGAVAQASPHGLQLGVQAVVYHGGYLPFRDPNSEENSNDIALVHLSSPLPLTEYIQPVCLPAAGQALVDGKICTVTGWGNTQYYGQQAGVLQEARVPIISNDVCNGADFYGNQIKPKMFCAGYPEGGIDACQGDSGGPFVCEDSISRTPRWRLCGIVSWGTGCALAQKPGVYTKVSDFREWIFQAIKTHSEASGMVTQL
T2 sequence (P05981 1-162 partner limits assumed): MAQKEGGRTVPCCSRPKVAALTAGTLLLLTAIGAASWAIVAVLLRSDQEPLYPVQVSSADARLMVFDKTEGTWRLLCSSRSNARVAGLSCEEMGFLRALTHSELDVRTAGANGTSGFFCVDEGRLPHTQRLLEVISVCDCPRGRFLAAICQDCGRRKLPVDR
Chain of TMPRSS2 (O15393 whole entry): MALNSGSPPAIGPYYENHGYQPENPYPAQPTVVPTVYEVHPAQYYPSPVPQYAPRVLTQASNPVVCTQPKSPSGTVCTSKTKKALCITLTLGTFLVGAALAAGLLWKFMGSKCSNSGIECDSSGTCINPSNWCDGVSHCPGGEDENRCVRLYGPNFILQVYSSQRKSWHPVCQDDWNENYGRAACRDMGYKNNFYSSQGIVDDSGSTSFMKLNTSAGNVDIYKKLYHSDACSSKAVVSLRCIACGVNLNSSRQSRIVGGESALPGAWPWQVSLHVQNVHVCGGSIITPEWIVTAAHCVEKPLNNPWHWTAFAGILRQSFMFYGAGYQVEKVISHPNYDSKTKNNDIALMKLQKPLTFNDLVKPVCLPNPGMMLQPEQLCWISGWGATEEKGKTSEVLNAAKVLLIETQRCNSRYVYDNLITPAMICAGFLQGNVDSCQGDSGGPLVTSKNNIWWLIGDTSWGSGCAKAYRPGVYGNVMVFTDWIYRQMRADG

Row | Substance | P2 Position Substrate Activity for HGFA (percent substrate cleavage/proteolysis) (HGFA; [1]) [%] | P3 Position Various Amino Acids Substrate Activity, HGFA (percent substrate cleavage/proteolysis) (HGFA) [%] | P4 Position Various Amino Acids Substrate Activity, HGFA (percent substrate proteolysis/cleavage) (HGFA) [%] | P2 Position Substrate Activity for hepsin (percent substrate cleavage/proteolysis) (hepsin; [1]) [%] | P3 Position Various Amino Acids Substrate Activity, hepsin (percent substrate cleavage/proteolysis) (hepsin) [%] | P4 Position Various Amino Acids Substrate Activity, hepsin (percent substrate proteolysis/cleavage) (hepsin) [%] | P2 Position Substrate Activity for TMPRSS2 (percent substrate cleavage/proteolysis) (TMPRSS2; [2]) [%] | P3 Position Various Amino Acids Substrate Activity, TMPRSS2 (percent substrate cleavage/proteolysis) (TMPRSS2; [3]) [%] | P4 Position Various Amino Acids Substrate Activity, TMPRSS2 (percent substrate proteolysis/cleavage) (TMPRSS2) [%] | P2 Position Substrate Activity for matriptase (percent substrate cleavage/proteolysis) (matriptase; [1]) [%] | P3 Position Various Amino Acids Substrate Activity, matriptase (percent substrate cleavage/proteolysis) (matriptase) [%] | P4 Position Various Amino Acids Substrate Activity, matriptase (percent substrate proteolysis/cleavage) (matriptase) [%] | P4 Position Substrate Activity for HGFA (percent substrate cleavage/proteolysis) (HGFA; [1]) [%] | P4 Position Substrate Activity for hepsin (percent substrate cleavage/proteolysis) (hepsin; [1]) [%] | P4 Position Substrate Activity for TMPRSS2 (percent substrate cleavage/proteolysis) (TMPRSS2; [2]) [%] | P4 Position Substrate Activity for matriptase (percent substrate cleavage/proteolysis) (matriptase; [1]) [%] | P3 Position Substrate Activity for HGFA (percent substrate cleavage/proteolysis) (HGFA; [4]) [%] | P3 Position Substrate Activity for hepsin (percent substrate cleavage/proteolysis) (hepsin; [4]) [%] | P3 Position Substrate Activity for TMPRSS2 (percent substrate cleavage/proteolysis) (TMPRSS2; residue fixed at P3 position of substrate library, best recognized amino acid set to 100%) [%] | P3 Position Substrate Activity for matriptase (percent substrate cleavage/proteolysis) (matriptase; [4])
1 | L-Gln | 0.89 | 3.47 | 1.96 | 0.00 | 16.72 | 0.76 | 6.03 | 52.35 | 26.44 | 1 | 18 | 0 |  |  |  |  |  |  |  | 
2 | L-Glu | 3.35 | 15.98 | 9.01 | 12.19 | 58.69 | 29.82 | 6.08 | 56.51 | 9.81 | 6 | 44 | 18 |  |  |  |  |  |  |  | 
3 | L-His | 4.00 | 11.93 | 8.90 | 31.24 | 43.05 | 25.35 | 15.38 | 26.27 | 24.98 | 30 | 17 | 10 |  |  |  |  |  |  |  | 
4 | L-Hyp | 3.95 | 2.18 |  | 38.67 | 4.70 |  | 10.38 | 2.19 |  | 2 | 0 | 50 | 10.66 | 37.81 | 33.28 | 50.16 |  |  |  | 
5 | L-Ile | 4.94 | 9.06 | 14.09 | 45.68 | 11.37 | 47.02 | 7.29 | 13.26 | 63.74 | 3 | 13 | 32 |  |  |  |  |  |  |  | 
6 | L-Leu | 100.00 | 13.71 | 10.18 | 100.00 | 19.51 | 33.10 | 5.90 | 18.81 | 30.24 | 12 | 22 | 17 |  |  |  |  |  |  |  | 
7 | L-Lys | 1.04 |  |  | 46.70 |  |  | 3.79 |  |  | 6 | 81 | 75 | 18.29 | 75.43 | 14.11 | 75.49 | 44.63 | 80.71 | 27.86 | 76.43% and 80.67%
